US20070021451A1, “Method for preventing or treating neurologic damage after spinal cord injury” (HAMAMATSU UNIVERSITY SCHOOL OF MEDICINE, priority 2005, published 2007)

Experiments:
[1] = system: Rabbit Model of Spinal Cord Ischemia; assay: Neurologic assessment: hind-limb motor function by modified Tarlov scale; format: in vivo, New Zealand White rabbits
Protocol: Twenty-six male New Zealand White rabbits weighting 2.2 to 3.0 kg were used in this experiment. Spinal cord ischemia was induced by occluding the abdominal aorta with […] for 20 minutes just distal to the renal arteries. Surgical preparation was conducted according to the method described in the literature, Terada H. et. al., J. Thorac. Cardiovasc. Surg. 2001; 122: 979-85. A 24-gauge venous catheter was placed in the marginal ear vein for drug administration. The rabbits were anesthetized with intravenous sodium pentobarbital (25 mg/kg) and allowed to breathe spontaneously. Lidocaine (0.5%) was administered at the site of the skin incision as local anesthesia. The left common carotid artery was cannulated with a 24-gauge catheter for monitoring the arterial pressure. Core body temperature was continuously monitored with a rectal probe and was maintained at 38.5° C. with the aid of heating lamp. The infrarenal abdominal aorta was exposed through a transperitoneal approach. After systemic heparinization (200 U/kg), spinal cord ischemia was induced by occluding the abdominal aorta with […] for 20 minutes just distal to the renal arteries and just above the aortic bifurcation. Then, the […] released, and the flank was closed. […] The rabbits were assigned randomly to 1 of the 4 groups and subjected to the treatment of (1) above in the following manner. The sham group (n=3) underwent the same operation without aortic occlusion. The control group (n=7) received saline (1 ml) intravenously 15 minutes before aortic occlusion. NS-7 (1 mg/kg) was administered intravenously as a bolus dose 15 minutes before aortic occlusion in group A (n=8) or just after releasing the […] onset of reperfusion) in group B (n=8). Hind-limb motor function was scored 24 and 48 hours after the operation by the modified Tarlov scale.

[2] = system: Rabbit Model of Spinal Cord Ischemia; assay: Histopathologic examination (HE staining, semiquantitative histologic score); format: in vivo, New Zealand White rabbits
Protocol: Twenty-six male New Zealand White rabbits weighting 2.2 to 3.0 kg were used in this experiment. Spinal cord ischemia was induced by occluding the abdominal aorta with […] for 20 minutes just distal to the renal arteries. Surgical preparation was conducted according to the method described in the literature, Terada H. et. al., J. Thorac. Cardiovasc. Surg. 2001; 122: 979-85. A 24-gauge venous catheter was placed in the marginal ear vein for drug administration. The rabbits were anesthetized with intravenous sodium pentobarbital (25 mg/kg) and allowed to breathe spontaneously. Lidocaine (0.5%) was administered at the site of the skin incision as local anesthesia. The left common carotid artery was cannulated with a 24-gauge catheter for monitoring the arterial pressure. Core body temperature was continuously monitored with a rectal probe and was maintained at 38.5° C. with the aid of heating lamp. The infrarenal abdominal aorta was exposed through a transperitoneal approach. After systemic heparinization (200 U/kg), spinal cord ischemia was induced by occluding the abdominal aorta with […] for 20 minutes just distal to the renal arteries and just above the aortic bifurcation. Then, the […] released, and the flank was closed. […] The rabbits were assigned randomly to 1 of the 4 groups and subjected to the treatment of (1) above in the following manner. The sham group (n=3) underwent the same operation without aortic occlusion. The control group (n=7) received saline (1 ml) intravenously 15 minutes before aortic occlusion. NS-7 (1 mg/kg) was administered intravenously as a bolus dose 15 minutes before aortic occlusion in group A (n=8) or just after releasing the […] onset of reperfusion) in group B (n=8). All animals were killed by means of a lethal injection of pentobarbital (200 mg/kg) 48 hours after operation. Spinal cords were quickly harvested and sectioned from the low thoracic level to the low lumbar level into the following 4 segments: low thoracic (LT=T10-T12), upper lumbar (UL=L1-L2), mid lumbar (ML=L3-L4), and low lumbar (LL=L5-L6). […]

[3] = Group A (n = 8, NS-7 1 mg/kg i.v. 15 min before aortic occlusion), 24 h after operation
[4] = Group A (n = 8, NS-7 1 mg/kg i.v. 15 min before aortic occlusion), 48 h after operation
[5] = Group B (n = 8, NS-7 1 mg/kg i.v. at onset of reperfusion), 24 h after operation
[6] = Group B (n = 8, NS-7 1 mg/kg i.v. at onset of reperfusion), 48 h after operation

Cc1cc(-c2ccc(F)cc2)cc(OCCCCCN2CCCCC2)n1.Cl [NS-7, 4-(4-Fluorophenyl)-2-methyl-6-(5-piperidinopentyloxy)pyridine hydrochloride]
Number of rabbits with Tarlov score 0 [1, 3]: 0 | Number of rabbits with Tarlov score 1 [1, 3]: 0 | Number of rabbits with Tarlov score 2 [1, 3]: 0 | Number of rabbits with Tarlov score 3 [1, 3]: 2 | Number of rabbits with Tarlov score 4 [1, 3]: 3 | Number of rabbits with Tarlov score 5 [1, 3]: 3 | Number of rabbits with Tarlov score 0 [1, 4]: 0 | Number of rabbits with Tarlov score 1 [1, 4]: 0 | Number of rabbits with Tarlov score 2 [1, 4]: 1 | Number of rabbits with Tarlov score 3 [1, 4]: 2 | Number of rabbits with Tarlov score 4 [1, 4]: 4 | Number of rabbits with Tarlov score 5 [1, 4]: 1 | Number of rabbits with Tarlov score 0 [1, 5]: 0 | Number of rabbits with Tarlov score 1 [1, 5]: 0 | Number of rabbits with Tarlov score 2 [1, 5]: 0 | Number of rabbits with Tarlov score 3 [1, 5]: 2 | Number of rabbits with Tarlov score 4 [1, 5]: 1 | Number of rabbits with Tarlov score 5 [1, 5]: 5 | Number of rabbits with Tarlov score 0 [1, 6]: 0 | Number of rabbits with Tarlov score 1 [1, 6]: 0 | Number of rabbits with Tarlov score 2 [1, 6]: 1 | Number of rabbits with Tarlov score 3 [1, 6]: 2 | Number of rabbits with Tarlov score 4 [1, 6]: 1 | Number of rabbits with Tarlov score 5 [1, 6]: 4 | Recovery of motor function in the hind limbs ([1]; group A and B, 24 hours and 48 hours after the operation, P<0.01 vs control): remarkably enhanced | Cellular damage in HE-stained sections (FIG. 3) ([2]; NS-7 before ischemia or at the onset of reperfusion, mid lumbar): minimal evidence of cellular damage | Histologic changes in the spinal cords ([2]; group A or group B, mid lumbar and low lumbar levels): only slight changes | Average histologic scores ([2]; group A or group B, mid lumbar and low lumbar levels, vs control group (FIG. 4)): significantly lower than those of the control group
